Assays:
[1] = system: Gli2; experiment: Gli2 trafficking assay in NIH 3T3 cells; format: cell-based; conditions: ShhN treatment
Protocol: NIH 3T3 cells were also employed in an assay to quantify Gli2 trafficking NIH-3T3 cells were seeded into 24-well plates containing poly-D-lysine-coated 12-mm glass coverslips (65,000 cells/well) and cultured for 24 hrs. […] Each compound or vehicle treatment was conducted in biological triplicates in the presence or absence of 10% (v/v) ShhN-conditioned medium. The cells were subsequently fixed in PBS containing 4% (v/v) paraformaldehyde for 12 min at room temperature, washed three times with PBS, permeabilized in PBS containing 0.5% (v/v) Triton X-100 for 5 min, and washed again twice in PBS. […] After three PBS washes, the coverslips were mounted onto slides using Prolong Gold Antifade Reagent with DAPI (Invitrogen, P36931). The cells were imaged using a Plan Apochromat 63×/1.4-0.6 oil immersion objective on an upright Leica DM4500B compound microscope. Ciliary Gli2 levels were quantified by determining total pixel intensity within a circular region manually placed at the distal end of each cilium and subtracting background fluorescence in an adjacent region of equivalent size. A total of 30 cilia from three coverslips were analyzed to determine the average ciliary Gli2 level for each experimental condition as a measure of Gli2 trafficking.

[2] = system: Sufu-KO-LIGHT cells; experiment: Sufu-KO-LIGHT cell assay, cytotoxicity (CellTiter 96 AQueous One); format: cell-based, mouse
Protocol: Sufu-KO-LIGHT cells were derived from Sufu knockout mouse embryonic fibroblasts according to the method of Chen et al. [Genes Dev. 2009; 23(16):1910-28.] The cells were co-transfected with the zeocin resistance vector (pVgRXR, Invitrogen) and a firefly luciferase reporter driven by eight Gli binding sites and a γ-crystallin basal promoter (8XGliBS-FL) [see Sasaki et al. Development. 1997; 124(7):1313-22.2]. […] Sufu-KO-LIGHT cells were cultured in DMEM (Invitrogen, 11965) containing 10% (v/v) fetal bovine serum (Invitrogen, No. 26140), 150 μg/mL zeocin (Invitrogen, R250-01), 1 mM sodium pyruvate (Invitrogen, 11360) and 1× PenStrep (Gibco, 15140).
(§1) All test compounds were dissolved in DMSO at 50 mM, serially diluted by 1:3, 1:4 or 1:5 in a 96-well translucent microplate (Greiner bio-one, 650201) and stored at −20° C. These serial dilutions were added to assay media freshly with final DMSO concentration of 0.2% (v/v).
The Sufu-KO-LIGHT cell assay provides a measure of Hh pathway activity and cytotoxicity. […] Bright Glo (Promega, E2620) reagent (50 μL/well) was added to the cells, and luciferase activities were determined on a microplate luminometer (Veritas). […] Cell viability was determined by measuring absorption at 490 nm after 1 hr of incubation on a microplate spectrophotometer (Benchmark Plus, Bio-Rad). Biological triplicates were analyzed for each test compounds.

[3] = biological target: Gli2 (Homo sapiens, UniProt P10070); experiment: Overexpression of Gli2 in Gli1 null cells, firefly luciferase reporter; format: cell-based, mouse; parameters: expressed in transfected cells; host or cells: Gli1-/- immortalized mouse embryonic fibroblasts
Protocol: Gli1 null cells [see Lipinski et al. BMC Cell Biol. 2008; 9:49], an immortalized mouse embryonic fibroblast cell line lacking the Gli1 gene, were cultured in DMEM (Invitrogen, 11965) containing 10% (v/v) calf serum (ATCC, 30-2030), 1 mM sodium pyruvate (Invitrogen, 11360), 1× PenStrep (Gibco, 15140) and 1×MEM non-essential amino acids solution (11140, Invitrogen).
as §1
Overexpression of Gli2 in Gli1 null cells provides a measure of Gli2-induced pathway activity. pcDNA-derived Gli2 expression vectors (200 ng/well) and a 1:19 mixture (total 200 ng/well) of constitutive Renilla luciferase reporter (pRLTK, Promega) and firefly luciferase reporter (8XGliBS-FL) were mixed with FuGene HD transfection reagent (1.2 μL/well, Promega, E2311) in Opti-MEM Reduced-Serum Medium with GLutaMAX (Invitrogene, 51985) at a total volume of 25 μL/well. […] The cells were lysed with passive lysis buffer (200 μL/well), and 10 μL of the obtained lysate were analyzed for firefly and Renilla luciferase activities using Dual-Luciferase Reporter Assay System (Promega, E1960) (50 μL/well of each reagent) on a microplate luminometer (Veritas). […]

Gli2 (Homo sapiens, UniProt P10070), sequence (P10070 whole entry, species assumed): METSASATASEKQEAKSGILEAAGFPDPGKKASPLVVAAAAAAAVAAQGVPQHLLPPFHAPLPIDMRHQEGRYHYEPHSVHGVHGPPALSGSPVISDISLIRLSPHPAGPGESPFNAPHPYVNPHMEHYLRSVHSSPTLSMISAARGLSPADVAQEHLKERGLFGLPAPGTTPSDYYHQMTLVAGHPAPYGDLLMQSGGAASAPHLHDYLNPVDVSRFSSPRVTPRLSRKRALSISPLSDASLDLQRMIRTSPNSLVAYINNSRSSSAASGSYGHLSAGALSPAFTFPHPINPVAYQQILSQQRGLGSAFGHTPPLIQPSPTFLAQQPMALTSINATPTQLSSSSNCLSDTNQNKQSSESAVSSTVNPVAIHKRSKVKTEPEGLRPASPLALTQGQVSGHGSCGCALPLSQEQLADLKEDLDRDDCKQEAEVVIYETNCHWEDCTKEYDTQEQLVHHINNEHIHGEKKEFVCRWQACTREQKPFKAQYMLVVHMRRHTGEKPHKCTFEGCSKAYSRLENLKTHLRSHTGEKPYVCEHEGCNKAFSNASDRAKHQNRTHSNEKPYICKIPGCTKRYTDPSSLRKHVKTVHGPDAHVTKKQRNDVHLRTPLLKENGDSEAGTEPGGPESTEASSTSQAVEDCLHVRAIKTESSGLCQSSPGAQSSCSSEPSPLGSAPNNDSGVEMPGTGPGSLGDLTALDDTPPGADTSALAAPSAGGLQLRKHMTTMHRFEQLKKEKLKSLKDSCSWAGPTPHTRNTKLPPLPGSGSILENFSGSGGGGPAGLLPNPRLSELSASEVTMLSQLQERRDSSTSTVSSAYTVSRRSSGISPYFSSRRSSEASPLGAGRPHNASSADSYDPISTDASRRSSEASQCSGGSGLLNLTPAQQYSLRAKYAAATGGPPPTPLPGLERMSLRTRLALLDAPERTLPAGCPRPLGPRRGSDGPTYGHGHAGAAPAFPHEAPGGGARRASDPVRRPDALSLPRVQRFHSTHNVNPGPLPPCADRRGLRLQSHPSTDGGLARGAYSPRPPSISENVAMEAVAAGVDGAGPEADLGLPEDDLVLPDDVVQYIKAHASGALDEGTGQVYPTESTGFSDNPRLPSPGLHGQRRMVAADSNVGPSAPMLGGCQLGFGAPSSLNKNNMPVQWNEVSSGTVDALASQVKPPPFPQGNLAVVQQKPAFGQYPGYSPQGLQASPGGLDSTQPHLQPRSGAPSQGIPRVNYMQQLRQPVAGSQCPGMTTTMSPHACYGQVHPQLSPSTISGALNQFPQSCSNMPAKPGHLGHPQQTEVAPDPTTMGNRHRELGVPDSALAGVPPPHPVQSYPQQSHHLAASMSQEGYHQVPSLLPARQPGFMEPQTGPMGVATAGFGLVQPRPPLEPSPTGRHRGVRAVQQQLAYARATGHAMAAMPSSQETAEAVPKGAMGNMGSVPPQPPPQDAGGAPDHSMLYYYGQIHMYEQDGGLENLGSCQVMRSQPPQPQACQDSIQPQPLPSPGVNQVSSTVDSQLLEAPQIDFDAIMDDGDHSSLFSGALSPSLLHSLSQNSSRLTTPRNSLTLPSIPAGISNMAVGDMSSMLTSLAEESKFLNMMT

CCOc1ccc(-[n+]2cc(-c3ccc(Br)cc3)n3c2CCCCC3)cc1 [Compound A-1]
Effect on ShhN-induced Gli2 accrual at the ciliary distal tip [1]: did not inhibit this process
General cytotoxicity [2]: not generally cytotoxic
IC50, cytotoxicity ([2]; Sufu-KO-LIGHT cells): No toxicity
Gli2-induced Hh reporter expression in cells lacking Gli1 [3]: not able to inhibit
IC50, firefly luciferase ([3]; Gli2-overexpressing Gli1-/-): No inhibition
